{"source": "the NIST ThermoML archive (doi:10.1016/j.jct.2017.07.016)", "note": "Numbers after ± are expanded uncertainties."}
{"experiment": "xn = mol fraction of the nth substance listed", "settings": "333.15 K; 96.7 kPa; Liquid; Capillary tube (Ostwald / Ubbelohde) method; x2 = 0", "units": {"viscosity": "mPa·s"}}
{"smiles": "CN(C)C=O", "note": "[dimethylformamide] + CCCCCCn1cc[n+](C)c1.[Cl-]", "viscosity": "0.562 ± 0.084"}
{"smiles": "CC(=O)N(C)C", "note": "[N,N-dimethylethanamide] + CCCCCCn1cc[n+](C)c1.[Cl-]", "viscosity": "0.627 ± 0.094"}
{"smiles": "c1ccncc1", "note": "[pyridine] + CCCCCCn1cc[n+](C)c1.[Cl-]", "viscosity": "0.59 ± 0.089"}
{"experiment": "xn = mol fraction of the nth substance listed", "settings": "333.15 K; 96.7 kPa; Liquid; Vibrating tube method; x2 = 0", "units": {"mass density": "kg/m3"}}
{"smiles": "C[S+](C)[O-]", "note": "[dimethyl sulfoxide] + CCCCCCn1cc[n+](C)c1.[Cl-]", "mass density": "1060.34 ± 2.1"}
{"smiles": "CN(C)C=O", "note": "[dimethylformamide] + CCCCCCn1cc[n+](C)c1.[Cl-]", "mass density": "910.44 ± 1.8"}
{"smiles": "CC(=O)N(C)C", "note": "[N,N-dimethylethanamide] + CCCCCCn1cc[n+](C)c1.[Cl-]", "mass density": "904.16 ± 1.9"}
{"smiles": "c1ccncc1", "note": "[pyridine] + CCCCCCn1cc[n+](C)c1.[Cl-]", "mass density": "942.72 ± 1.9"}
{"experiment": "xn = mol fraction of the nth substance listed", "settings": "338.15 K; 96.7 kPa; Liquid; Capillary tube (Ostwald / Ubbelohde) method; x2 = 0", "units": {"viscosity": "mPa·s"}}
{"smiles": "C[S+](C)[O-]", "note": "[dimethyl sulfoxide] + CCCCCCn1cc[n+](C)c1.[Cl-]", "viscosity": "1.056 ± 0.16"}
{"smiles": "CN(C)C=O", "note": "[dimethylformamide] + CCCCCCn1cc[n+](C)c1.[Cl-]", "viscosity": "0.537 ± 0.081"}
{"smiles": "CC(=O)N(C)C", "note": "[N,N-dimethylethanamide] + CCCCCCn1cc[n+](C)c1.[Cl-]", "viscosity": "0.598 ± 0.09"}
{"smiles": "c1ccncc1", "note": "[pyridine] + CCCCCCn1cc[n+](C)c1.[Cl-]", "viscosity": "0.56 ± 0.084"}
{"experiment": "xn = mol fraction of the nth substance listed", "settings": "338.15 K; 96.7 kPa; Liquid; Vibrating tube method; x2 = 0", "units": {"mass density": "kg/m3"}}
{"smiles": "C[S+](C)[O-]", "note": "[dimethyl sulfoxide] + CCCCCCn1cc[n+](C)c1.[Cl-]", "mass density": "1055.34 ± 2.1"}
{"smiles": "CN(C)C=O", "note": "[dimethylformamide] + CCCCCCn1cc[n+](C)c1.[Cl-]", "mass density": "905.6 ± 1.8"}
{"smiles": "CC(=O)N(C)C", "note": "[N,N-dimethylethanamide] + CCCCCCn1cc[n+](C)c1.[Cl-]", "mass density": "899.53 ± 1.9"}
{"smiles": "c1ccncc1", "note": "[pyridine] + CCCCCCn1cc[n+](C)c1.[Cl-]", "mass density": "937.6 ± 1.9"}
{"experiment": "xn = mol fraction of the nth substance listed", "settings": "343.15 K; 96.7 kPa; Liquid; Capillary tube (Ostwald / Ubbelohde) method; x2 = 0", "units": {"viscosity": "mPa·s"}}
{"smiles": "C[S+](C)[O-]", "note": "[dimethyl sulfoxide] + CCCCCCn1cc[n+](C)c1.[Cl-]", "viscosity": "0.989 ± 0.15"}
{"smiles": "CN(C)C=O", "note": "[dimethylformamide] + CCCCCCn1cc[n+](C)c1.[Cl-]", "viscosity": "0.514 ± 0.077"}
{"smiles": "CC(=O)N(C)C", "note": "[N,N-dimethylethanamide] + CCCCCCn1cc[n+](C)c1.[Cl-]", "viscosity": "0.567 ± 0.085"}
{"smiles": "c1ccncc1", "note": "[pyridine] + CCCCCCn1cc[n+](C)c1.[Cl-]", "viscosity": "0.533 ± 0.08"}
{"experiment": "xn = mol fraction of the nth substance listed", "settings": "343.15 K; 96.7 kPa; Liquid; Vibrating tube method; x2 = 0", "units": {"mass density": "kg/m3"}}
{"smiles": "C[S+](C)[O-]", "note": "[dimethyl sulfoxide] + CCCCCCn1cc[n+](C)c1.[Cl-]", "mass density": "1050.35 ± 2.1"}
{"smiles": "CN(C)C=O", "note": "[dimethylformamide] + CCCCCCn1cc[n+](C)c1.[Cl-]", "mass density": "900.74 ± 1.8"}
{"smiles": "CC(=O)N(C)C", "note": "[N,N-dimethylethanamide] + CCCCCCn1cc[n+](C)c1.[Cl-]", "mass density": "894.87 ± 1.9"}
{"smiles": "c1ccncc1", "note": "[pyridine] + CCCCCCn1cc[n+](C)c1.[Cl-]", "mass density": "932.46 ± 1.9"}
{"experiment": "xn = mol fraction of the nth substance listed", "settings": "348.15 K; 96.7 kPa; Liquid; Capillary tube (Ostwald / Ubbelohde) method; x2 = 0", "units": {"viscosity": "mPa·s"}}
{"smiles": "C[S+](C)[O-]", "note": "[dimethyl sulfoxide] + CCCCCCn1cc[n+](C)c1.[Cl-]", "viscosity": "0.931 ± 0.14"}
{"smiles": "CN(C)C=O", "note": "[dimethylformamide] + CCCCCCn1cc[n+](C)c1.[Cl-]", "viscosity": "0.493 ± 0.074"}
{"smiles": "CC(=O)N(C)C", "note": "[N,N-dimethylethanamide] + CCCCCCn1cc[n+](C)c1.[Cl-]", "viscosity": "0.541 ± 0.081"}
{"smiles": "c1ccncc1", "note": "[pyridine] + CCCCCCn1cc[n+](C)c1.[Cl-]", "viscosity": "0.507 ± 0.076"}
{"experiment": "xn = mol fraction of the nth substance listed", "settings": "348.15 K; 96.7 kPa; Liquid; Vibrating tube method; x2 = 0", "units": {"mass density": "kg/m3"}}
{"smiles": "C[S+](C)[O-]", "note": "[dimethyl sulfoxide] + CCCCCCn1cc[n+](C)c1.[Cl-]", "mass density": "1045.34 ± 2.1"}
{"smiles": "CN(C)C=O", "note": "[dimethylformamide] + CCCCCCn1cc[n+](C)c1.[Cl-]", "mass density": "895.87 ± 1.8"}
{"smiles": "CC(=O)N(C)C", "note": "[N,N-dimethylethanamide] + CCCCCCn1cc[n+](C)c1.[Cl-]", "mass density": "890.19 ± 1.9"}
{"smiles": "c1ccncc1", "note": "[pyridine] + CCCCCCn1cc[n+](C)c1.[Cl-]", "mass density": "927.3 ± 1.9"}
{"experiment": "xn = mol fraction of the nth substance listed", "settings": "353.15 K; 96.7 kPa; Liquid; Capillary tube (Ostwald / Ubbelohde) method; x2 = 0", "units": {"viscosity": "mPa·s"}}
{"smiles": "C[S+](C)[O-]", "note": "[dimethyl sulfoxide] + CCCCCCn1cc[n+](C)c1.[Cl-]", "viscosity": "0.878 ± 0.13"}
{"smiles": "CN(C)C=O", "note": "[dimethylformamide] + CCCCCCn1cc[n+](C)c1.[Cl-]", "viscosity": "0.473 ± 0.071"}
{"smiles": "CC(=O)N(C)C", "note": "[N,N-dimethylethanamide] + CCCCCCn1cc[n+](C)c1.[Cl-]", "viscosity": "0.516 ± 0.078"}
{"smiles": "c1ccncc1", "note": "[pyridine] + CCCCCCn1cc[n+](C)c1.[Cl-]", "viscosity": "0.485 ± 0.073"}
{"experiment": "xn = mol fraction of the nth substance listed", "settings": "353.15 K; 96.7 kPa; Liquid; Vibrating tube method; x2 = 0", "units": {"mass density": "kg/m3"}}
{"smiles": "C[S+](C)[O-]", "note": "[dimethyl sulfoxide] + CCCCCCn1cc[n+](C)c1.[Cl-]", "mass density": "1040.33 ± 2.1"}
{"smiles": "CN(C)C=O", "note": "[dimethylformamide] + CCCCCCn1cc[n+](C)c1.[Cl-]", "mass density": "890.98 ± 1.8"}
{"smiles": "CC(=O)N(C)C", "note": "[N,N-dimethylethanamide] + CCCCCCn1cc[n+](C)c1.[Cl-]", "mass density": "885.51 ± 1.9"}
{"smiles": "c1ccncc1", "note": "[pyridine] + CCCCCCn1cc[n+](C)c1.[Cl-]", "mass density": "922.12 ± 1.9"}
{"experiment": "not given", "settings": "303.15 K; 96.7 kPa; Liquid; Capillary tube (Ostwald / Ubbelohde) method", "units": {"viscosity": "mPa·s"}}
{"smiles": "c1ccncc1", "note": "[pyridine]", "viscosity": "0.843 ± 0.13"}
{"smiles": "C[S+](C)[O-]", "note": "[dimethyl sulfoxide]", "viscosity": "1.8 ± 0.27"}
{"smiles": "CCCCCCn1cc[n+](C)c1.[Cl-]", "note": "[1-hexyl-3-methylimidazolium chloride]", "viscosity": "5718.5 ± 960"}
{"smiles": "CN(C)C=O", "note": "[dimethylformamide]", "viscosity": "0.766 ± 0.12"}
{"smiles": "CC(=O)N(C)C", "note": "[N,N-dimethylethanamide]", "viscosity": "0.891 ± 0.13"}
{"experiment": "not given", "settings": "303.15 K; 96.7 kPa; Liquid; Vibrating tube method", "units": {"mass density": "kg/m3"}}
{"smiles": "c1ccncc1", "note": "[pyridine]", "mass density": "973.09 ± 1.9"}
{"smiles": "C[S+](C)[O-]", "note": "[dimethyl sulfoxide]", "mass density": "1090.29 ± 2.2"}
{"smiles": "CCCCCCn1cc[n+](C)c1.[Cl-]", "note": "[1-hexyl-3-methylimidazolium chloride]", "mass density": "1036.07 ± 2.2"}
{"smiles": "CN(C)C=O", "note": "[dimethylformamide]", "mass density": "939.18 ± 1.9"}
{"smiles": "CC(=O)N(C)C", "note": "[N,N-dimethylethanamide]", "mass density": "931.85 ± 2"}
{"experiment": "not given", "settings": "308.15 K; 96.7 kPa; Liquid; Capillary tube (Ostwald / Ubbelohde) method", "units": {"viscosity": "mPa·s"}}
{"smiles": "c1ccncc1", "note": "[pyridine]", "viscosity": "0.789 ± 0.12"}
